From PubChem BioAssay (NCI)
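Following 48 hours of exposure in 96-well plates, responses at five concentrations were used to interpolate endpoints linearly. At the GI50, growth is halved. TGI: total growth inhibition.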

How the values were obtained:
Test in all cases: inhibition of tumour cell growth, NCI panel, 48 h
ACHN renal = tested on: ACHN renal
MDA-MB-435 = tested on: MDA-MB-435
SNB-19 CNS = tested on: SNB-19 CNS
NCI-H460 lung = tested on: NCI-H460 lung
HOP-62 NSCLC = tested on: HOP-62 NSCLC
HL-60(TB) leukemia = tested on: HL-60(TB) leukemia
UACC-257 melanoma = tested on: UACC-257 melanoma
SF-539 CNS = tested on: SF-539 CNS
MOLT-4 leukemia = tested on: MOLT-4 leukemia
NCI-H23 lung = tested on: NCI-H23 lung
HT29 colon = tested on: HT29 colon
HCC-2998 colon = tested on: HCC-2998 colon
MDA-MB-231 breast = tested on: MDA-MB-231 breast
NCI-H226 lung = tested on: NCI-H226 lung
LOX IMVI melanoma = tested on: LOX IMVI melanoma
OVCAR-4 ovarian = tested on: OVCAR-4 ovarian
KM12 colon = tested on: KM12 colon
RXF 393 renal = tested on: RXF 393 renal
M14 melanoma = tested on: M14 melanoma
OVCAR-8 ovarian = tested on: OVCAR-8 ovarian
HOP-92 NSCLC = tested on: HOP-92 NSCLC
786-0 renal = tested on: 786-0 renal
HCT-15 colon = tested on: HCT-15 colon
SF-268 CNS = tested on: SF-268 CNS
U251 CNS = tested on: U251 CNS
DU-145 prostate = tested on: DU-145 prostate
UO-31 renal = tested on: UO-31 renal
TK-10 renal = tested on: TK-10 renal
EKVX NSCLC = tested on: EKVX NSCLC
T-47D breast = tested on: T-47D breast
SK-OV-3 ovarian = tested on: SK-OV-3 ovarian
SF-295 CNS = tested on: SF-295 CNS
OVCAR-5 ovarian = tested on: OVCAR-5 ovarian
SNB-75 CNS = tested on: SNB-75 CNS
PC-3 prostate = tested on: PC-3 prostate
MCF7 breast = tested on: MCF7 breast
A549 NSCLC = tested on: A549 NSCLC
UACC-62 melanoma = tested on: UACC-62 melanoma
HS 578T breast = tested on: HS 578T breast
COLO 205 colon = tested on: COLO 205 colon
CAKI-1 renal = tested on: CAKI-1 renal
SN12C renal = tested on: SN12C renal
BT-549 breast = tested on: BT-549 breast
SK-MEL-5 melanoma = tested on: SK-MEL-5 melanoma
OVCAR-3 ovarian = tested on: OVCAR-3 ovarian
NCI/ADR-RES ovarian = tested on: NCI/ADR-RES ovarian
SK-MEL-28 melanoma = tested on: SK-MEL-28 melanoma
SW-620 colon = tested on: SW-620 colon
MALME-3M melanoma = tested on: MALME-3M melanoma
IGROV1 ovarian = tested on: IGROV1 ovarian
RPMI-8226 leukemia = tested on: RPMI-8226 leukemia
HCT-116 colon = tested on: HCT-116 colon
K-562 leukemia = tested on: K-562 leukemia
CCRF-CEM leukemia = tested on: CCRF-CEM leukemia
SR leukemia = tested on: SR leukemia
NCI-H522 lung = tested on: NCI-H522 lung
SK-MEL-2 melanoma = tested on: SK-MEL-2 melanoma

O[C@H]1CO[C@H]2[C@@H]1OC[C@@H]2Oc1ccc(Nc2ccnc(Nc3ccc(O[C@H]4CO[C@H]5[C@@H]4OC[C@@H]5O)c(Cl)c3)n2)cc1Cl
GI50 (ACHN renal): 2.8 µM | TGI (ACHN renal): 10.6 µM | GI50 (MDA-MB-435): 2.31 µM | TGI (MDA-MB-435): 10 µM | GI50 (SNB-19 CNS): 2.75 µM | TGI (SNB-19 CNS): 7.98 µM | GI50 (NCI-H460 lung): 1.4 µM | TGI (NCI-H460 lung): 3.05 µM | GI50 (HOP-62 NSCLC): 1.71 µM | TGI (HOP-62 NSCLC): 4.03 µM | GI50 (HL-60(TB) leukemia): 1.57 µM | TGI (HL-60(TB) leukemia): 4.7 µM | GI50 (UACC-257 melanoma): 2.7 µM | TGI (UACC-257 melanoma): 10.2 µM | GI50 (SF-539 CNS): 2.22 µM | TGI (SF-539 CNS): 7.16 µM | GI50 (MOLT-4 leukemia): 1.72 µM | TGI (MOLT-4 leukemia): 6.04 µM | GI50 (NCI-H23 lung): 1.49 µM | TGI (NCI-H23 lung): 4.6 µM | GI50 (HT29 colon): 2.48 µM | TGI (HT29 colon): 15.4 µM | GI50 (HCC-2998 colon): 2.27 µM | TGI (HCC-2998 colon): 6.55 µM | GI50 (MDA-MB-231 breast): 1.81 µM | TGI (MDA-MB-231 breast): 6.04 µM | GI50 (NCI-H226 lung): 1.48 µM | TGI (NCI-H226 lung): 3.61 µM | GI50 (LOX IMVI melanoma): 1.26 µM | TGI (LOX IMVI melanoma): 3.18 µM | GI50 (OVCAR-4 ovarian): 1.54 µM | TGI (OVCAR-4 ovarian): 5.24 µM | GI50 (KM12 colon): 1.36 µM | TGI (KM12 colon): 3.48 µM | GI50 (RXF 393 renal): 1.5 µM | TGI (RXF 393 renal): 3.8 µM | GI50 (M14 melanoma): 1.48 µM | TGI (M14 melanoma): 4.18 µM | GI50 (OVCAR-8 ovarian): 1.38 µM | TGI (OVCAR-8 ovarian): 11.3 µM | GI50 (HOP-92 NSCLC): 1.52 µM | TGI (HOP-92 NSCLC): 3.15 µM | GI50 (786-0 renal): 2.98 µM | TGI (786-0 renal): 15.1 µM | GI50 (HCT-15 colon): 2.32 µM | TGI (HCT-15 colon): 6.6 µM | GI50 (SF-268 CNS): 1.63 µM | TGI (SF-268 CNS): 4.98 µM | GI50 (U251 CNS): 1.62 µM | TGI (U251 CNS): 4.02 µM | GI50 (DU-145 prostate): 1.56 µM | TGI (DU-145 prostate): 4.19 µM | GI50 (UO-31 renal): 1.55 µM | TGI (UO-31 renal): 3.06 µM | GI50 (TK-10 renal): 2.14 µM | TGI (TK-10 renal): 10.5 µM | GI50 (EKVX NSCLC): 2.4 µM | TGI (EKVX NSCLC): 8.86 µM | GI50 (T-47D breast): 0.456 µM | TGI (T-47D breast): 2.89 µM | GI50 (SK-OV-3 ovarian): 2.53 µM | TGI (SK-OV-3 ovarian): 10 µM | GI50 (SF-295 CNS): 1.65 µM | TGI (SF-295 CNS): 3.22 µM | GI50 (OVCAR-5 ovarian): 2.47 µM | TGI (OVCAR-5 ovarian): 8.03 µM | GI50 (SNB-75 CNS): 1.27 µM | TGI (SNB-75 CNS): 4.77 µM | GI50 (PC-3 prostate): 2.26 µM | TGI (PC-3 prostate): 11.2 µM | GI50 (MCF7 breast): 1.73 µM | TGI (MCF7 breast): 5.44 µM | GI50 (A549 NSCLC): 2.84 µM | TGI (A549 NSCLC): 11.5 µM | GI50 (UACC-62 melanoma): 1.11 µM | TGI (UACC-62 melanoma): 2.75 µM | GI50 (HS 578T breast): 1.29 µM | TGI (HS 578T breast): 4.8 µM | GI50 (COLO 205 colon): 1.86 µM | TGI (COLO 205 colon): 6.16 µM | GI50 (CAKI-1 renal): 1.79 µM | TGI (CAKI-1 renal): 10.2 µM | GI50 (SN12C renal): 1.59 µM | TGI (SN12C renal): 6.15 µM | GI50 (BT-549 breast): 2.2 µM | TGI (BT-549 breast): 8.14 µM | GI50 (SK-MEL-5 melanoma): 1.17 µM | TGI (SK-MEL-5 melanoma): 2.43 µM | GI50 (OVCAR-3 ovarian): 1.56 µM | TGI (OVCAR-3 ovarian): 7.17 µM | GI50 (NCI/ADR-RES ovarian): 5.82 µM | TGI (NCI/ADR-RES ovarian): > 100 µM | GI50 (SK-MEL-28 melanoma): 3.04 µM | TGI (SK-MEL-28 melanoma): 11.6 µM | GI50 (SW-620 colon): 2.36 µM | TGI (SW-620 colon): 6.86 µM | GI50 (MALME-3M melanoma): 1.09 µM | TGI (MALME-3M melanoma): 3.09 µM | GI50 (IGROV1 ovarian): 0.757 µM | TGI (IGROV1 ovarian): 6.08 µM | GI50 (RPMI-8226 leukemia): 1.05 µM | TGI (RPMI-8226 leukemia): 3.24 µM | GI50 (HCT-116 colon): 2.24 µM | TGI (HCT-116 colon): 9.12 µM | GI50 (K-562 leukemia): 1.27 µM | TGI (K-562 leukemia): 18.4 µM | GI50 (CCRF-CEM leukemia): 0.666 µM | TGI (CCRF-CEM leukemia): 5.31 µM | GI50 (SR leukemia): 2.28 µM | TGI (SR leukemia): 15.3 µM | GI50 (NCI-H522 lung): 1.17 µM | TGI (NCI-H522 lung): 3.69 µM | GI50 (SK-MEL-2 melanoma): 1.71 µM | TGI (SK-MEL-2 melanoma): 5.02 µM
